Series [1] has as its target T1, DPP-IV (dipeptidyl peptidase IV from porcine kidney) (Sus scrofa, UniProt P22411).
T1 construct: dipeptidyl peptidase IV from porcine kidney, product of SIGMA; purchased SIGMA; host or cells: porcine kidney (tissue-derived enzyme)
Put plainly: Test of resistance to dipeptidyl peptidase IV (DPP-IV). It counts as in vitro ADME. The settings on record: half-life (t1/2) in DPP-IV solution at 37° C., GLP-1 of Comparative Example 1 defined as standard (=1). As for the experimental part:
Each solution mixture was adjusted with 100 mM sodium phosphate buffer to 100 μl in total and allowed to react at 37° C. A 10 μaliquot of the reaction solution was mixed with 15 μl of 10% trifluoroacetic acid prepared in advance in another Eppendorf tube.

The next series has as its system C57BL/6JJcl mice. The experiment in a line: Oral Glucose Tolerance Test (OGTT). It counts as in vivo. The procedure:
After 30 minutes, a glucose solution was orally administered at a dose of 1 mg/g. Blood was collected from the orbits before the glucose administration and 30 minutes, 60 minutes and 120 minutes after the glucose administration. Blood-sugar levels were measured using ACCU-CHEK Aviva (Roche Diagnostics). In the drawings below, for example, “26,34Cys GLP-1-disialo”, which is an oligosaccharide chain added GLP-1 peptide wherein amino acids at positions 26 and 34 of GLP-1 are each substituted with disialo oligosaccharide chain added Cys, is referred to as “C26,C34”, if necessary. The same holds true for other oligosaccharide chains and amino acid sites.
Next, 18,36Cys GLP-1-disialo and GLP-1 were evaluated by OGTT using doses of 1/10 (0.9 nmol/kg) and 9 nmol/kg, respectively, and compared.

Molecules are shown by their SMILES.

The source of these data is US8765669B2, “Glycosylated GLP-1 peptide” (Glytech, Inc., priority 2008, dated 2014).

T1 sequence (P22411 whole entry): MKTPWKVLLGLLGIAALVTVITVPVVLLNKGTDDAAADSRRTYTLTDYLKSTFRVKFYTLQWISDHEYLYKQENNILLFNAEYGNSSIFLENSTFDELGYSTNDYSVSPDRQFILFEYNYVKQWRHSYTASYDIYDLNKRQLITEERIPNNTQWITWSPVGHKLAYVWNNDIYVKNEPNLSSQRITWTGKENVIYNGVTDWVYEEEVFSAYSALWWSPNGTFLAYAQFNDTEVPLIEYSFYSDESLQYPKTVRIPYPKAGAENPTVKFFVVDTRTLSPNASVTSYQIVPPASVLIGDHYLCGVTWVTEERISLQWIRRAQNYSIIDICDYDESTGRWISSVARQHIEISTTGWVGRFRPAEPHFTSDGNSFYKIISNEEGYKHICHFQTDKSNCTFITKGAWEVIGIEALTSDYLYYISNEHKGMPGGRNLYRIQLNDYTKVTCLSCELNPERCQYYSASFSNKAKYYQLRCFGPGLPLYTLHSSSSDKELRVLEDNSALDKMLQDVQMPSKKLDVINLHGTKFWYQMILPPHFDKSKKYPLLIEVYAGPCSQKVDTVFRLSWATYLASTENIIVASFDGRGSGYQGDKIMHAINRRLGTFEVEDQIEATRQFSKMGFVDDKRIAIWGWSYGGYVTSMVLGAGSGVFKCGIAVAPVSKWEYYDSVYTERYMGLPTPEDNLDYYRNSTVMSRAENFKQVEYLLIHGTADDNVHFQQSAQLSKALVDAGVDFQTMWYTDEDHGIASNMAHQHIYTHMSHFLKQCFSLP

As to `CC[C@H](C)[C@H](NC(=O)[C@H](Cc1ccccc1)NC(=O)[C@H](CCC(=O)O)NC(=O)[C@H](CCCCN)NC(=O)[C@H](C)NC(=O)[C@H](C)NC(=O)[C@H](CCC(N)=O)NC(=O)CNC(=O)[C@H](CCC(=O)O)NC(=O)[C@H](CC(C)C)NC(=O)[C@H](Cc1ccc(O)cc1)NC(=O)[C@H](CSCC(=O)N[C@@H]1O[C@H](CO)[C@@H](O[C@@H]2O[C@H](CO)[C@@H](O[C@@H]3O[C@H](CO[C@H]4O[C@H](CO)[C@@H](O)[C@H](O)[C@@H]4O[C@@H]4O[C@H](CO)[C@@H](O[C@@H]5O[C@H](CO[C@]6(C(=O)O)C[C@H](O)[C@@H](NC(C)=O)[C@H]([C@H](O)[C@H](O)CO)O6)[C@H](O)[C@H](O)[C@H]5O)[C@H](O)[C@H]4NC(C)=O)[C@@H](O)[C@H](O[C@H]4O[C@H](CO)[C@@H](O)[C@H](O)[C@@H]4O[C@@H]4O[C@H](CO)[C@@H](O[C@@H]5O[C@H](CO[C@]6(C(=O)O)C[C@H](O)[C@@H](NC(C)=O)[C@H]([C@H](O)[C@H](O)CO)O6)[C@H](O)[C@H](O)[C@H]5O)[C@H](O)[C@H]4NC(C)=O)[C@@H]3O)[C@H](O)[C@H]2NC(C)=O)[C@H](O)[C@H]1NC(C)=O)NC(=O)[C@H](CO)NC(=O)[C@@H](NC(=O)[C@H](CC(=O)O)NC(=O)[C@H](CO)NC(=O)[C@@H](NC(=O)[C@H](Cc1ccccc1)NC(=O)[C@@H](NC(=O)CNC(=O)[C@H](CCC(=O)O)NC(=O)[C@H](C)NC(=O)[C@@H](N)Cc1c[nH]cn1)[C@@H](C)O)[C@@H](C)O)C(C)C)C(=O)N[C@@H](C)C(=O)N[C@@H](Cc1c[nH]c2ccccc12)C(=O)N[C@@H](CC(C)C)C(=O)N[C@H](C(=O)N[C@@H](CCCCN)C(=O)NCC(=O)N[C@@H](CSCC(=O)N[C@@H]1O[C@H](CO)[C@@H](O[C@@H]2O[C@H](CO)[C@@H](O[C@@H]3O[C@H](CO[C@H]4O[C@H](CO)[C@@H](O)[C@H](O)[C@@H]4O[C@@H]4O[C@H](CO)[C@@H](O[C@@H]5O[C@H](CO[C@]6(C(=O)O)C[C@H](O)[C@@H](NC(C)=O)[C@H]([C@H](O)[C@H](O)CO)O6)[C@H](O)[C@H](O)[C@H]5O)[C@H](O)[C@H]4NC(C)=O)[C@@H](O)[C@H](O[C@H]4O[C@H](CO)[C@@H](O)[C@H](O)[C@@H]4O[C@@H]4O[C@H](CO)[C@@H](O[C@@H]5O[C@H](CO[C@]6(C(=O)O)C[C@H](O)[C@@H](NC(C)=O)[C@H]([C@H](O)[C@H](O)CO)O6)[C@H](O)[C@H](O)[C@H]5O)[C@H](O)[C@H]4NC(C)=O)[C@@H]3O)[C@H](O)[C@H]2NC(C)=O)[C@H](O)[C@H]1NC(C)=O)C(=O)NCC(=O)O)C(C)C` [Example 2, 18 and 36Cys-disialo oligosaccharide Chain Added GLP-1], the “Relative Resistance” value in series [1] was 128.6. Besides, in the series with C57BL/6JJcl mice (0.9 nmol/kg intraperitoneal, compared with GLP-1 at 9 nmol/kg, FIG. 5), the “effect of suppressing rise in blood-sugar levels” value is reported as “almost equal effect of suppressing rise in blood-sugar levels to that of GLP-1”. In addition, the “effect of suppressing rise in blood-sugar levels relative to that of GLP-1” value with C57BL/6JJcl mice (OGTT, from doses giving almost equal effect (0.9 vs 9 nmol/kg)) is on record as “about 10 times”.

For the molecule `CC[C@H](C)[C@H](NC(=O)[C@H](Cc1ccccc1)NC(=O)[C@H](CCC(=O)O)NC(=O)[C@H](CCCCN)NC(=O)[C@H](C)NC(=O)[C@H](C)NC(=O)[C@H](CCC(N)=O)NC(=O)CNC(=O)[C@H](CCC(=O)O)NC(=O)[C@H](CC(C)C)NC(=O)[C@H](Cc1ccc(O)cc1)NC(=O)[C@H](CO)NC(=O)[C@H](CO)NC(=O)[C@@H](NC(=O)[C@H](CC(=O)O)NC(=O)[C@H](CO)NC(=O)[C@@H](NC(=O)[C@H](Cc1ccccc1)NC(=O)[C@@H](NC(=O)CNC(=O)[C@H](CCC(=O)O)NC(=O)[C@H](C)NC(=O)[C@@H](N)Cc1c[nH]cn1)[C@@H](C)O)[C@@H](C)O)C(C)C)C(=O)N[C@@H](CSCC(=O)N[C@@H]1O[C@H](CO)[C@@H](O)[C@H](O[C@@H]2O[C@H](C(=O)O)[C@@H](O[C@@H]3O[C@H](CO)[C@@H](O)[C@H](O[C@@H]4O[C@H](C(=O)O)[C@@H](O[C@@H]5O[C@H](CO)[C@@H](O)[C@H](O[C@@H]6O[C@H](C(=O)O)[C@@H](O[C@@H]7O[C@H](CO)[C@@H](O)[C@H](O[C@@H]8O[C@H](C(=O)O)[C@@H](O[C@@H]9O[C@H](CO)[C@@H](O)[C@H](O[C@@H]%10O[C@H](C(=O)O)[C@@H](O[C@@H]%11O[C@H](CO)[C@@H](O)[C@H](O[C@@H]%12O[C@H](C(=O)O)[C@@H](O[C@@H]%13O[C@H](CO)[C@@H](O)[C@H](O[C@@H]%14O[C@H](C(=O)O)[C@@H](O[C@@H]%15O[C@H](CO)[C@@H](O)[C@H](O[C@@H]%16O[C@H](C(=O)O)[C@@H](O)[C@H](O)[C@H]%16O)[C@H]%15NC(C)=O)[C@H](O)[C@H]%14O)[C@H]%13NC(C)=O)[C@H](O)[C@H]%12O)[C@H]%11NC(C)=O)[C@H](O)[C@H]%10O)[C@H]9NC(C)=O)[C@H](O)[C@H]8O)[C@H]7NC(C)=O)[C@H](O)[C@H]6O)[C@H]5NC(C)=O)[C@H](O)[C@H]4O)[C@H]3NC(C)=O)[C@H](O)[C@H]2O)[C@H]1NC(C)=O)C(=O)N[C@@H](Cc1c[nH]c2ccccc12)C(=O)N[C@@H](CC(C)C)C(=O)N[C@H](C(=O)N[C@@H](CCCCN)C(=O)NCC(=O)N[C@@H](CCCNC(=N)N)C(=O)NCC(=O)O)C(C)C` [Example 10, 30Cys-hyaluronic acid hexadecasaccharide (HA-16) Added GLP-1 Peptide], the “Relative Resistance” value in series [1] was 3.9.

`CC[C@H](C)[C@H](NC(=O)[C@H](Cc1ccccc1)NC(=O)[C@H](CCC(=O)O)NC(=O)[C@H](CCCCN)NC(=O)[C@H](C)NC(=O)[C@H](C)NC(=O)[C@H](CCC(N)=O)NC(=O)CNC(=O)[C@H](CCC(=O)O)NC(=O)[C@H](CC(C)C)NC(=O)[C@H](Cc1ccc(O)cc1)NC(=O)[C@H](CO)NC(=O)[C@H](CO)NC(=O)[C@@H](NC(=O)[C@H](CC(=O)O)NC(=O)[C@H](CO)NC(=O)[C@@H](NC(=O)[C@H](Cc1ccccc1)NC(=O)[C@@H](NC(=O)CNC(=O)[C@H](CCC(=O)O)NC(=O)[C@H](C)NC(=O)[C@@H](N)Cc1c[nH]cn1)[C@@H](C)O)[C@@H](C)O)C(C)C)C(=O)N[C@@H](C)C(=O)N[C@@H](Cc1c[nH]c2ccccc12)C(=O)N[C@@H](CC(C)C)C(=O)N[C@H](C(=O)N[C@@H](CCCCN)C(=O)NCC(=O)N[C@@H](CSCC(=O)N[C@@H]1O[C@H](CO)[C@@H](O)[C@H](O[C@@H]2O[C@H](C(=O)O)[C@@H](O[C@@H]3O[C@H](CO)[C@@H](O)[C@H](O[C@@H]4O[C@H](C(=O)O)[C@@H](O[C@@H]5O[C@H](CO)[C@@H](O)[C@H](O[C@@H]6O[C@H](C(=O)O)[C@@H](O[C@@H]7O[C@H](CO)[C@@H](O)[C@H](O[C@@H]8O[C@H](C(=O)O)[C@@H](O[C@@H]9O[C@H](CO)[C@@H](O)[C@H](O[C@@H]%10O[C@H](C(=O)O)[C@@H](O[C@@H]%11O[C@H](CO)[C@@H](O)[C@H](O[C@@H]%12O[C@H](C(=O)O)[C@@H](O[C@@H]%13O[C@H](CO)[C@@H](O)[C@H](O[C@@H]%14O[C@H](C(=O)O)[C@@H](O[C@@H]%15O[C@H](CO)[C@@H](O)[C@H](O[C@@H]%16O[C@H](C(=O)O)[C@@H](O)[C@H](O)[C@H]%16O)[C@H]%15NC(C)=O)[C@H](O)[C@H]%14O)[C@H]%13NC(C)=O)[C@H](O)[C@H]%12O)[C@H]%11NC(C)=O)[C@H](O)[C@H]%10O)[C@H]9NC(C)=O)[C@H](O)[C@H]8O)[C@H]7NC(C)=O)[C@H](O)[C@H]6O)[C@H]5NC(C)=O)[C@H](O)[C@H]4O)[C@H]3NC(C)=O)[C@H](O)[C@H]2O)[C@H]1NC(C)=O)C(=O)NCC(=O)O)C(C)C` [Example 11, 36Cys-hyaluronic acid hexadecasaccharide (HA-16) Added GLP-1 Peptide]: the “Relative Resistance” value in series [1] is given as 3.
